Experiment [1] concerns streptozotocin-diabetic rats. Nature of the experiment: Proteinuria: urine protein excretion in diabetic rats (Example III, FIG. 4). The following applies: 4 weeks. It counts as in vivo, rat. Here is the method:
Example III was carried out to determine the effect of tetracycline therapy on proteinuria, a parameter of renal damage, in diabetic rats.
(§1) Streptozotocin-diabetic rats were treated by the daily oral administration of 20 mg minocycline/rat/day over a 4-week period. At the end of the protocol, 24-hour urines were collected to measure protein excretion.

Experiment [2] relates to streptozotocin-diabetic rats. In words: Other signs of diabetes (hyperglycemia, glucosuria, polyuria) in diabetic rats (Example III). It counts as in vivo, rat. On the procedure: as §1
For experiment [3] the following is noted: White, Lancet 1989; cited from earlier work.
Experiment [4] has as its system serum proteins. Nature of the experiment: Serum fructosamine (glycosylated serum protein), 14 weeks doxycycline (Example II, Table III). The experiment is classed as in vivo. The following applies: 2 mg/rat/day oral. Here is the method: Three groups of rats were established: a non-diabetic control group, an untreated streptozotocin-diabetic group and a streptozotocin-diabetic group treated orally with 2 mg doxycycline/rat/day over the 14-week time period. At the end of the 14 weeks, blood samples were collected from each rat arid the serum was measured for glycosylated protein using an assay which is based on the ability of glucose to non-enzymatically bind to proteins by a ketoamine crosslink to form fructosamine. During the assay, the glucose bound to the protein through a ketoamine chemical bond reduces a tetrazolium dye under alkaline conditions producing a color change which is measured spectrophotometrically. Armbruster, Clin. Chem., 33: 2153-2163 (1987). A fructosamine assay kit is available from Isolab Inc., Akron, Ohio 44321.
In particular, the serum samples were centrifuged to remove lipids. The clarified serum samples were treated with a reagent to remove ascorbic acid and other interfering substances. The treated Serum samples were then incubated for a fixed period of time, with the fructosamine-bicarbonate reagent (tetrazolium salt), and absorbance was measured at a wavelength of 500 nm in a spectrophotometer. The data was analyzed statistically.

The subject of experiment [5] is serum protein. In words: Glycosylated serum proteins in diabetic rats (Example IV, FIG. 5). It counts as in vivo, Sprague-Dawley rat. The conditions noted are these: 5 mg daily oral gavage, 21 days; effect p<0.05. An excerpt: (Control vs. Diabetic p<0.01, Diabetic vs. Diabetic treated with Doxycycline p<0.05, Diabetic vs. Diabetic treated with CMT-1 (4-dedimethyiaminotetracycline) p<0.05).
(§2) Sixteen adult male sprague-Dawley rats, each weighing approximately 350 grams, were divided into four groups 0f four animals per group.

Experiment [6] deals with skin collagen. Nature of the experiment: Glycosylation of skin collagen in diabetic rats, anthrone method (Example IV, FIG. 6). The experiment is classed as in vivo, Sprague-Dawley rat. The conditions noted are these: 5 mg daily oral gavage, 21 days; effect p<0.05. Here is the method:
as §2
In addition, the entire skin was dissected from each rat. Samples containing 100mg of each skin were suspended in a Tris-HCl buffer containing 5mM CaCl2 and chromatographically-purified bacterial collagenase and incubated at 37° C. for 4 hours. Following incubation all samples were centrifugated at 35,000×G and the supernatants containing the skin collagen fragments were collected. The skin digest supernatants were analyzed for (1) carbohydrate-attached-to-collagen by the anthrone method, as described by Halhoul and Kleinberg ([…]) Anal. Biochem. 50: 337-343 and (2) total protein using the BioRad Assay, BioRad Chemical Division, Richmond, Calif.

Experiment [7] deals with skin collagen. Nature of the experiment: Glycosylation of diabetic rat skin collagen (Example V, Table IV). It counts as in vivo, Sprague-Dawley rat. The following applies: 5 mg daily oral gavage, 21 days; for mM Fructosamine/mg protein (Mean ± SE): NDC 0.027, untreated diabetic 0.377; for Reduction of glycosylation in treated diabetics (%): vs untreated diabetic control. Here is the method:
(§3) All animals were weighed weekly.
The subcutaneous muscle layer was removed leaving essentially the dermis. The dermis (skin connective tissue) samples were minced, then homogenized in phosphate buffered saline (4° C.). Following centrifugation (at 9000 rpm, 4° C., 30 min.) of the homogenates, the supernatants were discarded. The pellets were repeatedly washed, then resuspended and extracted at 4° C. overnight in chloroform/methanol to remove lipids. The de-lipidized tissue samples were then washed in 100% methanol, then in 50% methanol. Following the methanol washes, the samples were washed with HEPES buffer (pH 7.4). The skin connective tissue samples (100 mg of each sample) were incubated at 37° C. (24 hours) with chromatographically-purified bacterial collagenase. After 24 hours the reaction mixture was centrifuged at 7000 rpm, room temperature for 30 minutes. Following centrifugation, the supernatants containing the digested collagen were collected. Aliquots of the supernatants were analyzed for glycosylated collagen using a modification of the Isolab Glyco-PROBE™ GSP assay kit. The assay is designed to measure glucose bound to protein which was then converted by Amadori rearrangement to fructosamine. For purposes of the present invention, the sample total protein was increased to compensate for low levels of glycosylated collagen compared to glycosylated serum proteins.

The subject of experiment [8] is collagenase. Nature of the experiment: Collagenase activity in skin of diabetic rats (Example V, FIG. 8). The following applies: 5 mg daily oral gavage, 21 days; p<0.001 for normalization. It counts as in vivo, Sprague-Dawley rat. On the procedure: as §3
In particular, all dissection and extraction procedures were carried out at 4° C. unless otherwise indicated. For MMP analysis, the tissues were minced, weighed, extracted, and the extracts partially purified by ammonium sulfate precipitation using techniques described previously (Ramamurthy and Golub, J. Periodontal Res. 17, 455, (1983)). The extracts of the diseased tissue were then concentrated 5-fold and aliquots were incubated (a) with [^3 H-methyl] gelatin (denatured type I rat skin collagen ) at 37° C. for 4hours to measure gelatinase activity. The undigested gelatin was precipitated with trichloroacetic acid, and after centrifugation, aliquots of the degradation products in the supernatants were measured in a liquid scintillation spectrometer (in addition to this lysis assay, the different molecular forms of gelatinase were assessed by zymography); (b) with [^3 H-methyl] collagen for 18 hours at 27° C. and the collagen degradation fragments in the supernatants were analyzed with a liquid scintillation spectrometer to measure collagenase activity. In addition, the radiolabeled collagen components (α chains) and degradation fragments (α^A) were assessed by a combination of SDS-polyacrylamide gel electrophoresis and fluorography as described previously (Golub et al. J. Periodontal Res. 20, 12 (1985).

For experiment [9], the system named is gelatinase. Nature of the experiment: Gelatinase activity in skin of diabetic rats (Example V, FIG. 9). The experiment is classed as in vivo, Sprague-Dawley rat. The conditions noted are these: 5 mg daily oral gavage, 21 days; p<0.001 for normalization. Here is the method:
as §3
In particular, all dissection and extraction procedures were carried out at 4° C. unless otherwise indicated. […] The extracts of the diseased tissue were then concentrated 5-fold and aliquots were incubated (a) with [^3 H-methyl] gelatin (denatured type I rat skin collagen ) at 37° C. for 4hours to measure gelatinase activity. The undigested gelatin was precipitated with trichloroacetic acid, and after centrifugation, aliquots of the degradation products in the supernatants were measured in a liquid scintillation spectrometer (in addition to this lysis assay, the different molecular forms of gelatinase were assessed by zymography); (b) with [^3 H-methyl] collagen for 18 hours at 27° C. and the collagen degradation fragments in the supernatants were analyzed with a liquid scintillation spectrometer to measure collagenase activity.

For experiment [10], the system named is diabetic rats. The conditions noted are these: Golub et al. 1990; cited from earlier work.
Experiment [11] has as its system collagen. The following applies: diabetes in rats; Brownlee et al. 1986; cited from earlier work.
Experiment [12] concerns collagenase. The conditions noted are these: in vitro (Golub, et al., 1991) and in vivo; cited from earlier work.
The subject of experiment [13] is serum proteins. In words: Glycosylated serum protein (GSP) in diabetic rats (Example V, FIG. 7). The following applies: 5 mg daily oral gavage, 21 days; vs untreated diabetics, p<0.005.
Procedure: Fifty-two adult male Sprague-Dawley rats were divided into eight groups, each consisting of 5-7 animals. Diabetes was induced by I.V. administration of streptozotocin in all rats, except the non-diabetic control group (7 rats). […] All animals were weighed weekly. Following general anesthesia by halothane inhalation, blood samples were collected by cardiac puncture. Blood samples were analyzed for serum glucose and glycosylated serum protein (GSP) levels. As previously mentioned, glycosylated serum protein levels were measured using the Isolab Glyco-PROBE™ GSP (glycosylated serum protein) assay kit.
For experiment [14] the following is noted: Wong et al. 1984, cited from earlier work.

The values that follow come from patent publication US5532227A, “Tetracyclines including non-antimicrobial chemically-modified tetracyclines inhibit excessive glycosylation of different types of collagen and other proteins during diabetes” (The Research Foundation of State University of New York, priority 1994, dated 1996).

In turn, `CN(C)c1ccc(O)c2c1C[C@H]1C[C@H]3[C@H](N(C)C)C(O)=C(C(N)=O)C(=O)[C@@]3(O)C(O)=C1C2=O` [Minocycline] registered a urine protein excretion in experiment [1] (20 mg minocycline/rat/day oral, normal 48, untreated diabetics 280) of 52 mg/24 hr. For the same compound, the development of proteinuria entry in experiment [1] (20 mg/rat/day oral) is listed as “completely prevented the development of proteinuria”. In addition, the “other signs of diabetes including hyperglycemia, glucosuria and polyuria” value in experiment [2] was “Neither treatment with minocycline nor CMT-1 reduced the other signs of diabetes”. In addition, the “effectiveness in dystrophic epidermolysis bullosa” value in experiment [3] was “effective in treating dystrophic epidermolysis bullosa”.

With `C[C@H]1c2cccc(O)c2C(O)=C2C(=O)[C@]3(O)C(O)=C(C(N)=O)C(=O)[C@@H](N(C)C)[C@@H]3[C@@H](O)[C@@H]21` [Doxycycline, reference compound], the “Serum Fructosamine Concentration” value in experiment [4] (mean ± standard error, non-diabetic 1.33, untreated diabetics 3.82) is 3.23 ± 0.20. The “fructosamine levels in the serum proteins” value in [4] (vs untreated diabetics, p<0.05) is recorded as “significantly (p<0.05) reduced”. For the same compound, the “fructosamine attached to serum protein (glycosylated serum protein)” value in experiment [5] is given as “returned both of these parameters of abnormal glycosylation to essentially normal levels”. In addition, the “glycosylation of skin collagen” value in [6] is “returned both of these parameters of abnormal glycosylation to essentially normal levels”. Further, in [7], the “mM Fructosamine/mg protein (Mean ± SE)” value is 0.244 ± 0.050 mM Fructosamine/mg protein and the “Reduction of glycosylation in treated diabetics (%)” value (“Reduction of glycosylation … (%)” for short) is 35.3%. The “collagenase activity in the skin” value in [8] was “normalized”. Also, the “gelatinase activity in the skin” value in [9] is “normalized”. In addition, the severity of hyperglycemia entry in [10] is on record as “does not reduce the severity of hyperglycemia in diabetic rats”.

For `CC1(O)c2cccc(O)c2C(O)=C2C(=O)C3C(O)=C(C(N)=O)C(=O)CC3CC21` (stereo not drawn) [CMT-7, 12a-deoxy-4-deoxy-4-dedimethylaminotetracycline], in experiment [7], the “mM Fructosamine/mg protein (Mean ± SE)” value is listed as 0.141 ± 0.086 mM Fructosamine/mg protein and the “Reduction of glycosylation … (%)” value amounted to 62.6%.

Turning to `N=C(N)NN` [aminoguanidine], in experiment [11], the “inhibition of nonenzymatic glucose-derived collagen crosslinking” value is recorded as “effective inhibitor”.

With `NC(=O)C1=C(O)C2(O)C(=O)C3=C(O)c4c(O)cccc4CC3CC2CC1=O` (stereo not drawn) [CMT-3, 6-demethyl-6-deoxy-4-dedimethylaminotetracycline], in experiment [7], the “mM Fructosamine/mg protein (Mean ± SE)” value is 0.186 ± 0.048 mM Fructosamine/mg protein and the “Reduction of glycosylation … (%)” value was 50.7%.

Turning to `C[C@H]1c2cccc(O)c2C(O)=C2C(=O)[C@]3(O)C(O)=C(C(N)=O)C(=O)C[C@@H]3[C@@H](O)[C@@H]21` [CMT-8, 6α-deoxy-5-hydroxy-4-dedimethylaminodoxycycline], in experiment [7], the “mM Fructosamine/mg protein (Mean ± SE)” value is listed as 0.118 ± 0.090 mM Fructosamine/mg protein and the “Reduction of glycosylation … (%)” value is reported as 68.7%.

Regarding tetracycline pyrazole [CMT-5], in experiment [7], the “mM Fructosamine/mg protein (Mean ± SE)” value is 0.121 ± 0.050 mM Fructosamine/mg protein and the “Reduction of glycosylation … (%)” value is 69.9%. The “collagenase activity in the skin” value in [8] is “normalized by all treatment groups (p<0.001) with the exception of CMT 5”. Also, the “gelatinase activity in the skin” value in experiment [9] is recorded as “normalized by all treatment groups (p<0.001) with the exception of CMT 5”. The anticollagenase properties result in experiment [12] is “lost its anticollagenase properties”. Further, in experiment [13], the GSP levels result was “substantially lower”.

`CC(C)Cc1ccc(C(C)C(=O)O)cc1` (stereo not drawn) [ibuprofen]: in [14] (combination study with tetracycline), the “reduction of resulting inflammation in acne vulgaris” value is listed as “useful in reducing the resulting inflammation”.

For `CN(C)C1C(=O)C(C(N)=O)=C(O)C2(O)C(=O)C3=C(O)c4c(O)cccc4C(C)(O)C3CC12` (stereo not drawn) [tetracycline], the “effectiveness against acne vulgaris” value in experiment [14] (combination study with ibuprofen) is given as “effective agent against acne vulgaris”.

Regarding `CC1(O)c2c(Cl)ccc(O)c2C(=O)C2=C(O)C3(O)C(=O)C(C(N)=O)=C(O)CC3CC21` (stereo not drawn) [CMT-4, 7-chloro-4-dedimethylaminotetracycline], in [7], the “mM Fructosamine/mg protein (Mean ± SE)” value is 0.236 ± 0.026 mM Fructosamine/mg protein and the “Reduction of glycosylation … (%)” value amounted to 37.4%.
